Source: patent publication US11304944B2, “MetAP2 inhibitors and methods of treating obesity” (SynDevRx, Inc., priority 2013, dated 2022)
Like-named read-outs stand apart in the source and are kept apart here.

Columns and labels:
DIO Levin rats = assay: Oral Glucose Tolerance Test (OGTT) Day 48 and HOMA-ir in DIO Levin rats; type: in vivo; details: for Blood Glucose, Time 15 / Blood Glucose, Time 30 / Blood Glucose, Time 60 / Blood Glucose, Time 90 / Blood Glucose, Time 120: OGTT; for BW: at OGTT;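 for Blood Glucose pre-OGTT: blood glucose in mg/dL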;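 for Blood Glucose, Time 120: blood glucose in mg/dL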;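 for Blood Glucose, Time 15: blood glucose in mg/dL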;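 for Blood Glucose, Time 30: blood glucose in mg/dL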;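 for Blood Glucose, Time 60: blood glucose in mg/dL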;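 for Blood Glucose, Time 90: blood glucose in mg/dL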
Description: Animals were weighed every other day. Food consumption was measured weekly. On an approximately weekly basis throughout the study, blood samples were taken for assessment of serum chemistries including glucose and insulin. On Day 48 all rats underwent a 4 hour fasted Oral Glucose Tolerance Test (OGTT). Animals were dosed orally (per os, PO) at 8 mL/kg 25% glucose (2 g/kg). On day 68, gross pathology was performed to determine body composition.

DIO C57Bl6 mice = details: for Weight Change from day 1: Day 32; for Average BW: IP-GTT day 24
Description: C57Bl6 male mice (N=6) fifteen weeks old with an average of weight of 42 g were ad libitum fed TD.06414 a high fat diet composed of 60% Kcal from fat (Harlan diet). […] Animals were weighed every other day. Food consumption was measured weekly. […] Each animal was weighed and a baseline fasted glucose measurement collected. Each animal was given a 1 gram per kilogram dose of dextrose as a 25% solution by intraperitoneal injection.

[1] = 0.6 mg/kd (so in the source) q4d sc
[2] = 03 mg/kg (so in the source) q4d sc
[3] = 0.2 mg/kg q4d sc, IP-GTT day 24, ± SEM
[4] = 0.2 mg/kg q4d sc, blood day 32, ± SEM

poly[HPMA-co-MA-GFLG-N-(trans-4-aminocyclohexyl)carbamoylfumagillol] [Compound 16]
HOMA-ir (Insulin Sensitivity) 15 min (DIO Levin rats; 0.3 mg/kg q4d sc): 40.1 | HOMA-ir (Insulin Sensitivity) 30 min (DIO Levin rats; 0.3 mg/kg q4d sc): 10.8 | HOMA-ir (Insulin Sensitivity) Pre-dose (DIO Levin rats; 0.3 mg/kg q4d sc): 14.6 | Blood Glucose pre-OGTT (DIO Levin rats; [1]): 121 mg/dL | Blood Glucose, Time 15 (DIO Levin rats; [1]): 150 mg/dL | Blood Glucose, Time 30 (DIO Levin rats; [1]): 148 mg/dL | Blood Glucose, Time 60 (DIO Levin rats; [1]): 149 mg/dL | Blood Glucose, Time 90 (DIO Levin rats; [1]): 143 mg/dL | Blood Glucose, Time 120 (DIO Levin rats; [1]): 150 mg/dL | BW (DIO Levin rats; [1]): 662 g | HOMA-ir (Insulin Sensitivity) 15 min (DIO Levin rats; 1 mg/kg q4d sc): 50.1 | HOMA-ir (Insulin Sensitivity) 30 min (DIO Levin rats; 1 mg/kg q4d sc): 18.1 | HOMA-ir (Insulin Sensitivity) Pre-dose (DIO Levin rats; 1 mg/kg q4d sc): 16.4 | Blood Glucose pre-OGTT (DIO Levin rats; [2]): 121 mg/dL | Blood Glucose, Time 15 (DIO Levin rats; [2]): 156 mg/dL | Blood Glucose, Time 30 (DIO Levin rats; [2]): 145 mg/dL | Blood Glucose, Time 60 (DIO Levin rats; [2]): 157 mg/dL | Blood Glucose, Time 90 (DIO Levin rats; [2]): 149 mg/dL | Blood Glucose, Time 120 (DIO Levin rats; [2]): 147 mg/dL | BW (DIO Levin rats; [2]): 697 g | Blood Glucose pre-OGTT (DIO Levin rats; 3 mg/kg q4d sc): 120 mg/dL | HOMA-ir (Insulin Sensitivity) 15 min (DIO Levin rats; 3 mg/kg q4d sc): 13.7 | HOMA-ir (Insulin Sensitivity) 30 min (DIO Levin rats; 3 mg/kg q4d sc): 4.6 | HOMA-ir (Insulin Sensitivity) Pre-dose (DIO Levin rats; 3 mg/kg q4d sc): 9.2 | Blood Glucose, Time 15 (DIO Levin rats; 3 mg/kg q4d sc): 157 mg/dL | Blood Glucose, Time 30 (DIO Levin rats; 3 mg/kg q4d sc): 144 mg/dL | Blood Glucose, Time 60 (DIO Levin rats; 3 mg/kg q4d sc): 140 mg/dL | Blood Glucose, Time 90 (DIO Levin rats; 3 mg/kg q4d sc): 127 mg/dL | Blood Glucose, Time 120 (DIO Levin rats; 3 mg/kg q4d sc): 129 mg/dL | BW (DIO Levin rats; 3 mg/kg q4d sc): 582 g | Blood Glucose pre-OGTT (DIO Levin rats; 6 mg, q7d sc): 128 mg/dL | HOMA-ir (Insulin Sensitivity) 15 min (DIO Levin rats; 6 mg, q7d sc): 37.2 | HOMA-ir (Insulin Sensitivity) 30 min (DIO Levin rats; 6 mg, q7d sc): 3.5 | HOMA-ir (Insulin Sensitivity) Pre-dose (DIO Levin rats; 6 mg, q7d sc): 12.0 | Blood Glucose, Time 15 (DIO Levin rats; 6 mg, q7d sc): 161 mg/dL | Blood Glucose, Time 30 (DIO Levin rats; 6 mg, q7d sc): 141 mg/dL | Blood Glucose, Time 60 (DIO Levin rats; 6 mg, q7d sc): 145 mg/dL | Blood Glucose, Time 90 (DIO Levin rats; 6 mg, q7d sc): 145 mg/dL | Blood Glucose, Time 120 (DIO Levin rats; 6 mg, q7d sc): 138 mg/dL | BW (DIO Levin rats; 6 mg, q7d sc): 604 g | Group BW ± SEM, Day 32 (DIO C57Bl6 mice; 0.2 mg/kg q4d sc): 46.5 ± 0.65 g | Weekly food consumption Day 1-8 (DIO C57Bl6 mice; 0.2 mg/kg q4d sc): 25.8 g | Weekly food consumption Day 9-15 (DIO C57Bl6 mice; 0.2 mg/kg q4d sc): 22.6 g | Weekly food consumption Day 15-22 (DIO C57Bl6 mice; 0.2 mg/kg q4d sc): 20.3 g | Weekly food consumption Day 22-29 (DIO C57Bl6 mice; 0.2 mg/kg q4d sc): 19.7 g | Weight Change from day 1 (DIO C57Bl6 mice; 0.2 mg/kg q4d sc): +10.5% | Average BW (DIO C57Bl6 mice; 0.2 mg/kg q4d sc): 43.4 g | Blood Glucose 120 (DIO C57Bl6 mice; [3]): 241 ± 16.8 mg/dL | Blood Glucose 15 min (DIO C57Bl6 mice; [3]): 505 ± 33.9 mg/dL | Blood Glucose 30 min (DIO C57Bl6 mice; [3]): 446 ± 20.5 mg/dL | Blood Glucose 60 min (DIO C57Bl6 mice; [3]): 456 ± 25.9 mg/dL | Blood Glucose 90 min (DIO C57Bl6 mice; [3]): 341 ± 15.5 mg/dL | Blood Glucose Fasting (DIO C57Bl6 mice; [3]): 254 ± 5.8 mg/dL | CHOLESTEROL (DIO C57Bl6 mice; [4]): 253 ± 8.4 mg/dL | HDL CHOLESTEROL (DIO C57Bl6 mice; [4]): 117 ± 2.7 mg/dL | HDL/LDL ratio (DIO C57Bl6 mice; [4]): 4.9 ± 0.2 | LDL (DIO C57Bl6 mice; [4]): 24 ± 1.1 mg/dL | TRIGLYCERIDE (DIO C57Bl6 mice; [4]): 158 ± 10.9 mg/dL | Epid. Fat (DIO C57Bl6 mice; 0.2 mg/kg q4d sc, day 32): 2.01 g | Fat % BW (DIO C57Bl6 mice; 0.2 mg/kg q4d sc, day 32): 13.0% | Ing. Fat (DIO C57Bl6 mice; 0.2 mg/kg q4d sc, day 32): 2.54 g | Liver (DIO C57Bl6 mice; 0.2 mg/kg q4d sc, day 32): 2.06 g | RP Fat (DIO C57Bl6 mice; 0.2 mg/kg q4d sc, day 32): 1.48 g | Total Fat (DIO C57Bl6 mice; 0.2 mg/kg q4d sc, day 32): 6.02 g | avg B.W. (DIO C57Bl6 mice; 0.2 mg/kg q4d sc, day 32): 46.50 g | Blood glucose (DIO C57Bl6 mice; 0.2 mg/kg q4d sc, day 32, fasted three hours): 290 mg/dL | Group BW ± SEM, Day 32 (DIO C57Bl6 mice; 0.6 mg/kg q4d sc): 43.3 ± 0.42 g | Weekly food consumption Day 1-8 (DIO C57Bl6 mice; 0.6 mg/kg q4d sc): 19.5 g | Weekly food consumption Day 9-15 (DIO C57Bl6 mice; 0.6 mg/kg q4d sc): 21.5 g | Weekly food consumption Day 15-22 (DIO C57Bl6 mice; 0.6 mg/kg q4d sc): 20.2 g | Weekly food consumption Day 22-29 (DIO C57Bl6 mice; 0.6 mg/kg q4d sc): 18.4 g | Weight Change from day 1 (DIO C57Bl6 mice; 0.6 mg/kg q4d sc): +2.9% | Average BW (DIO C57Bl6 mice; 0.6 mg/kg q4d sc): 40.9 g
